The values that follow come from patent US12448382B2, “Heterocyclic compounds for mediating tyrosine kinase 2 activity” (GUANGZHOU INNOCARE PHARMA TECH CO., LTD., priority 2019, dated 2025).

In test [1] the target is T1, human recombinant TYK2 protein (Homo sapiens, UniProt P29597).
T1 construct: purchased Carna Biosciences 08-147
T1 sequence (P29597 871-1187 limits assumed): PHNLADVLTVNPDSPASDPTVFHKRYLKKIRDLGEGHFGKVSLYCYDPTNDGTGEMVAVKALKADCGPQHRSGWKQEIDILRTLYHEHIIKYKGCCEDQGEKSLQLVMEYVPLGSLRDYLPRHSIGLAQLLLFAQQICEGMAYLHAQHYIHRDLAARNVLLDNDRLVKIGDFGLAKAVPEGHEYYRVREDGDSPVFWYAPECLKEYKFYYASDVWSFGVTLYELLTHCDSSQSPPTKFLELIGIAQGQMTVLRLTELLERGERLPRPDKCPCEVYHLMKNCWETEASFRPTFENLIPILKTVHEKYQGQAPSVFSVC
Put plainly: TYK2 Inhibition Assay (HTRF kinase assay). Type of test: biochemical. The conditions noted are these: human recombinant TYK2, 11.25 μM ATP substrate solution. How it is done:
The effect of the compounds of the present invention on the enzymatic activity of TYK2 was assessed by detecting the substrate phosphorylation level in a kinase reaction using the HTRF kinase assay detection kit (Cisbio, Cat. No. 62TK0PEC).
(§1) The experimental method is generally described below:
A reaction buffer contained the following components: an enzyme reaction buffer (1×), 5 mM MgCl2 mM DTT and 0.01% Brij35 from the kit. A TYK2 kinase solution contained human recombinant TYK2 protein (Carna Biosciences, 08-147) diluted in the reaction buffer to 0.25 ng/μL. A substrate reaction solution contained 11.25 μM ATP and 0.5 μM of a biotinylated tyrosine kinase substrate from the kit in the reaction buffer. A detection solution contained 0.1 ng/μL Eu^3+-labeled cage antibody (Cisbio, 61T66KLB) and 25 nM streptavidin-1 added XL665 (Cisbio, 610SAXLB) in the reaction buffer.
(§2) The test compound was dissolved in DMSO to 10 μM, followed by a serial 4-fold dilution with DMSO to a minimum concentration of 0.061 nM. Each concentration was further diluted 40-fold with the reaction buffer.
(§3) To a 384-well assay plate (Corning, 3674) were added 4 μL of compound solution and 2 μL of TYK2 kinase solution. The mixture was mixed and incubated at room temperature for 15 minutes, and then added with 4 μL of the substrate reaction solution. After further incubation at room temperature for 40 minutes, the reaction mixture was added with an equal volume of 10 μL detection solution and allowed to stand at room temperature for 30 minutes. An Envision plate reader (Perkin Elmer) was then used to measure the progress of the reaction at 620 nm and 665 nm. The ratio of absorbances at 665 nm and 620 nm was positively correlated with the degree of substrate phosphorylation, therefore the activity of TYK2 kinase was detected. In the experiment, the group without TYK2 kinase protein was treated as the 100% inhibition group, and the group with TYK2 kinase protein but not the test compound was treated as the 0% inhibition group. The percentage of inhibition on TYK2 kinase activity by the test, compound was calculated using the following formula: Percentage of inhibition=100−100*(ratiocompound−ratio100% inhibition)/(ratio0% inhibition−ratio100% inhibition)
The IC50 value of the test compound was calculated from 8 concentration points using the XLfit software (ID Business Solutions Ltd., UK) by the following formula: Y=Bottom+(Top−Bottom)/(1+10^((log IC50−X)slope factor))
(§4) Where Y was the percentage of inhibition, X was the logarithm of the concentration of the test compound, Bottom was the bottom plateau value of the S-shaped curve, Top was the top plateau value of the S-shaped curve, and slope factor was the slope coefficient of the curve.

In test [2] the test system is IL-12-induced IFN-γ secretion in NK92 cells. As to the kind of experiment: Inhibition of IL-12-induced IFN-γ Secretion in NK92 Cells (ELISA). Type of test: cell-based, human. Particulars: Homo sapiens, 24 hours incubation, 8 concentration points, read-out: IC50 (NK92_IL12/IFNγ). How it is done:
Inhibition of IL-12-induced IFN-γ Secretion in NK92 Cells
The effect of the compounds of the present invention on IFN-γ secretion induced by IL-12 in NK92 cells was evaluated by an enzyme-linked immunosorbent assay (ELISA).
IL-12 receptor is mainly expressed in activated T-cells, NK cells (NK92 is a NK cell line), DC cells, and B-cells. When binding to IL-12, it activates JAK2/TYK2 signal transduction pathway within NK cells and T lymphocytes, thereby inducing secretion of IFN-γ.
as §1
The test compound was dissolved in DMSO to 2.5 mM, followed by a serial 4-fold dilution with DMSO to a minimum concentration of […]. Each concentration was further diluted 50-fold with an FBS-free MEMα medium (Gibco, 12561-056).
NK92 cells (Nanjing Cobioer, CBP60980) were cultured in a complete MEMα medium containing 12.5% FBS (Ausbian, VS500T), 12.5% horse serum (Gibco, 16050-122), 0.02 mM folic acid (Sigma, F8758), 0.2 mM inositol (Sigma, 17850), 0.55 mM β-mercaptoethanol (Gibco, 21985-023), 200 U/mL IL-2 (R&D Systems, 202-1L), and 100 U/mL penicillin (Thermofisher, 15140122). When covering 80-90% of the culture container surface, the cells were dispersed and plated on a 96-well plate (Thermofisher, 167425) with 100,000 cells per well (80 μL of the complete MEMα medium without IL-2). The 96-well plate was then incubated overnight in a 37° C./5% CO2 incubator.
After overnight incubation, 10 μL of the test compound and 10 μL of 50 ng/mL IL-12 (R & D Systems, 219-1L) were added to each well and mix gently, and the 96-well plate was incubated in the 37° C./5% CO2 incubator for additional 24 hours. The plate as centrifuged at 800 rpm for 10 minutes at room temperature and 50 μL of the supernatant from each well was transferred to another 96-well plate (Sigma, CLS3695) coated with anti-IFN-γ antibody. The amount of IFN-γ secretion was detected following the instruction from the Human IFN-γ DuoSet ELISA kit (R & D Systems, DY285B). In the experiment, the group with IL-12 and the test compound being replaced with the MEMα medium was the non-stimulated control group (100% inhibition), and the group with IL-12 and 0.2% DMSO was the stimulated group (0% inhibition). The percentage of inhibition on IL-12 induced IFN-γ secretion in NK-92 cells by the test compound was calculated using the following formula: Percentage of inhibition=100−100*(signalcompound−signalnon-stimulated control)/(signalstimulated control−signalnon-stimulated control)
The IC50 value of the test compound was calculated front 8 concentration points using the XLfit software (ID Business Solutions Ltd., UK) by the following formula: Y=Bottom+(Top−Bottom)/(1+10^((log IC50−X)×slope factor))
as §4

The target in test [3] is T2, human recombinant JAK2 protein (Homo sapiens, UniProt O60674).
T2 construct: purchased Carna Biosciences 08-045
As to the kind of experiment: JAK2 Inhibition Assay (HTRF kinase assay). The class given is biochemical. Particulars: human recombinant JAK2, 2.5 μM ATP substrate solution. How it is done:
The effect of the compounds of the present invention on the enzymatic activity of JAK2 was assessed by detecting the substrate phosphorylation level in a kinase reaction using the HTRF kinase assay detection kit (Cisbio, Cat. No. 62TK0PEC).
as §1
A reaction buffer contained the following components: an enzyme reaction buffer (1×), 5 mM MgCl2, 1 mM DTT and 0.01% Brij35 from the kit. A JAK2 kinase solution contained a human recombinant JAK2 protein (Carna Biosciences, 08-045) diluted in the reaction buffer to 0.15 ng/μL. A substrate reaction solution contained 2.5 μM ATP and 0.25 μM of a biotinylated tyrosine kinase substrate from the kit in the reaction buffer. A detection solution contained 0.1 ng/μL Eu^3+-labeled cage antibody (Cisbio, 61T66KLB) and 12.5 nM streptavidin-labeled XL665 (Cisbio, 610SAXLB) in the reaction buffer.
as §2
as §3, with “JAK2” for “TYK2”, “30” for “40”, “test” for “test,”
The IC50 value of the test compound was calculated from 8 concentration points using the XLfit softwere (ID Business Solutions Ltd., UK) by the following formula: Y=Bottom+(Top−Bottom)/(1+10^((log IC50−X)×slope factor))
Where Y was the percentage of inhibition, X was the logarithm of the concentration of the test compound. Bottom was the bottom plateau value of the S-shaped curve, Top was the top plateau value of the S-shaped curve, and slope factor was the slope coefficient of the curve.

T2 sequence (O60674 826-1132 limits assumed): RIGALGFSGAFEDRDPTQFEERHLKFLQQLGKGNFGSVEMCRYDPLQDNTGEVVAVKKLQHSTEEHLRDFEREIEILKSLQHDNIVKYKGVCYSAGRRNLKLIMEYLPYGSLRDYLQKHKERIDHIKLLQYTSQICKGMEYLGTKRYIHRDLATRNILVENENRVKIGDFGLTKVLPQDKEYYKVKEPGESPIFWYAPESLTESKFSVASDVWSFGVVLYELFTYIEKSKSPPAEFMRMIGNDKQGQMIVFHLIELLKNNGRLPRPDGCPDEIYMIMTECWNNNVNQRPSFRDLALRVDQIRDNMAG

With `Cn1cc(Nc2ncc(Cl)c(N3C[C@]4(C)CN(C(=O)C(C)(C)O)C[C@]4(C)C3)n2)cn1` [Compound 44, 1-((3aR,6aS)-5-(5-chloro-2((1-methyl-1H-pyrazol-4-yl)amino)pyrimidin-4-yl)-3a,6a-dimethylhexahydropyrrolo[3,4-c]pyrrol-2(1H)-yl)-2-hydroxy-2-methylpropan-1-one], the IC50 was 8.6 nM in test [1], 3.62 µM in test [2] and 20 nM in test [3].
The matching figures for `CN1CCC(n2cc(Nc3ncc(Cl)c(N4C[C@]5(C)CN(C(=O)C6CC6)C[C@]5(C)C4)n3)cn2)CC1` [Compound 16, ((3aR,6aS)-5-(5-chloro-2-((1-(1-methylpiperidin-4-yl)-1H-pyrazol-4-yl)amino)pyrimidin-4-yl)-3a,6a-dimethylhexahydropyrrolo[3,4-c]pyrrol-2(1H)-yl)(cyclopropyl)methanone]: 1.2 nM, 1.01 µM and 0.9 nM.
The matching figures for `Cn1cc(Nc2ncc(Cl)c(N3C[C@]4(C)CN(C(=O)CO)C[C@]4(C)C3)n2)cn1` [Compound 35, 1-((3aR,6aS)-5-(5-chloro-2-((1-methyl-1H-pyrazol-4-yl)amino)pyrimidin-4-yl)-3a,6a-dimethylhexahydropyrrolo[3,4-c]pyrrol-2(1H)-yl)-2-hydroxyethan-1-one]: 0.6 nM, 0.453 µM and 3.3 nM.
In the same order, the values of `Cc1ncc(CN2C[C@@]3(C)CN(c4nc(Nc5cnn(C)c5)ncc4Cl)C[C@@]3(C)C2)o1` [Compound 80, 5-chloro-4-((3aR,6aS)-3a,6a-dimethyl-5-((2-methyloxazol-5-yl)methyl)hexahydropyrrolo[3,4-c]pyrrol-2(1H)-yl)-N-(1-methyl-1H-pyrazol-4-yl)pyrimidin-2-amine] are 19 nM, 4.09 µM and 16 nM.
Regarding `CCNC(=O)c1ccc(Nc2ncc(F)c(N3C[C@]4(C)CN(C(=O)C5CC5(F)F)C[C@]4(C)C3)n2)cc1` (stereo partly drawn) [Compound 10, 4-((4-((3aR,6aS)-5-(2,2-difluorocyclopropane-1-carbonyl)-3a,6a-dimethylhexahydropyrrolo[3,4-c]pyrrol-2(IH)-yl)-5-fluoropyrimidin-2-yl)amino)-N-ethylbenzamide], the IC50 in test [1] stood at 2.4 nM; in test [2] it was 3.79 µM; in test [3] it was 15 nM.
In the same order, the values of `Cc1cnc(Nc2cnn(C)c2)nc1N1C[C@@]2(C)CN(S(C)(=O)=O)C[C@@]2(C)C1` [Compound 55, 4-((3aR,6aS)-3a,6a-dimethyl-5-(methylsulfonyl)hexahydropyrrolo[3,4-c]pyrrol-2(1H)-yl)-5-methyl-N-(1-methyl-1H-pyrazol-4-yl)pyrimidin-2-amine] are 1.7 nM, 0.413 µM and 3.7 nM.
The matching figures for `Cn1cc(Nc2ncc(Cl)c(N3C[C@H]4CN(C(=O)C5CC5)C[C@@]4(C)C3)n2)cn1` [Compound 87, ((3aR,6aS)-5-(5-chloro-2-((1-methyl-1H-pyrazol-4-yl)amino)pyrimidin-4-yl)-3a-methylhexahydropyrrolo[3,4-c]pyrrol-2(1H)-yl)(cyclopropyl)methanone]: 6 nM, 0.959 µM and 9 nM.
In the same order, the values of `C[C@]12CN(C(=O)CC#N)C[C@H]1CN(c1nc(Nc3cn[nH]c3)ncc1Cl)C2` [Compound 98, 3-((3aS,6aR)-5-(2-((1H-pyrazol-4-yl)amino)-5-chloropyrimidin-4-yl)-3a-methylhexahydropyrrolo[3,4-c]pyrrol-2(1H)-yl)-3-oxopropanenitrile] are 0.1 nM, 0.516 µM and 0.7 nM.
With `CCNC(=O)c1ccc(Nc2nccc(N3C[C@]4(C)CN(C(=O)C5CC5)C[C@]4(C)C3)n2)cc1` [Compound 3], the IC50 in test [1] came out at 23 nM; in test [3] it was 113 nM.
